This is an account of results in patent publication US20260022142A1, “MACROCYCLIC IMMUNOMODULATORS” (Bristol-Myers Squibb Company, priority 2022, published 2026).

pIC50: −log10 of the molar value. Bridge positions count the residues as written; N and C are the ends. Square brackets hold non-standard residues; d marks the D form. Peptide text beside a SMILES is read from it. * marks the point of attachment. ξ: configuration not given here. Bip = N[C@@H](Cc1ccc(-c2ccccc2)cc1)C(=O)O; Phe(3-Me) = Cc1cccc(C[C@H](N)C(=O)O)c1; Val(3-OH) = CC(C)(O)[C@H](N)C(=O)O; hArg = N=C(N)NCCCC[C@H](N)C(=O)O; Cha = N[C@@H](CC1CCCCC1)C(=O)O; Cit = NC(=O)NCCC[C@H](N)C(=O)O; Thr(3ξ) = CC(O)[C@H](N)C(=O)O; Tle = CC(C)(C)[C@H](N)C(=O)O; 12Ado = NCCCCCCCCCCCC(=O)O; Carboxymethyl = O=C(O)C*; Orn = NCCC[C@H](N)C(=O)O; Aun = NCCCCCCCCCCC(=O)O; Dab = NCC[C@H](N)C(=O)O; Dap = NC[C@H](N)C(=O)O; Piv = CC(C)(C)C(=O)*

T1 sequence (Q15116 25-288): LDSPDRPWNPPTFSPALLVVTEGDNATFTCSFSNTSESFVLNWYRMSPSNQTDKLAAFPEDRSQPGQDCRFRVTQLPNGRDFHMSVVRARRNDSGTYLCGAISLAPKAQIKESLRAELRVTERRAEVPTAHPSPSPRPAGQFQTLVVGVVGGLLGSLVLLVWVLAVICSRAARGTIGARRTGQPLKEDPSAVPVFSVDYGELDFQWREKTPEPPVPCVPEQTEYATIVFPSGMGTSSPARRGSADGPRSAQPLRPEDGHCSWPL

The assay has as its target T1, PD-1/PD-L1 interaction (PE-labeled human PD-L1-Ig binding to Jurkat cell line over-expressing human PD-1) (Homo sapiens, UniProt Q15116).
T1 construct: expressed in transfected cells; host or cells: Jurkat
Description: Jurkat-PD-1 Cell Binding High-Content Screening Assay (CBA). Type of assay: cell-based. To be noted: Jurkat cell line over-expressing human PD-1; PE-labeled PD-L1-Ig 20 nM final; read-out: Jurkat hPD1-PDL1 IC50. In a few lines: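 Read-out is high-content imaging of cell-bound phycoerythrin-tagged PD-L1-Ig on fixed, Hoechst-counterstained Jurkat cells that over-express human PD-1. Compound exposure lasts 2 h at 37° C before the labeled ligand (20 nM final) is added for a further hour.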
On to `Cc1cccc(C[C@@H]2NC(=O)[C@H](CC(=O)O)NC(=O)[C@H](Cc3ccc(OCC(=O)O)cc3)NC(=O)[C@H](CCCNC(=N)N)NC(=O)CSC[C@@H](C(=O)N[C@H](CC(N)=O)C(=O)NCCCCCCCCCCC(=O)O)NC(=O)[C@H](CO)NC(=O)[C@H](C(C)(C)C)NC(=O)[C@H](CC3CCCCC3)NC(=O)[C@H](CCN)NC(=O)[C@@H](CC(C)C)NC(=O)[C@H](CCCN)NC(=O)[C@H](Cc3ccc(OCC(=O)O)cc3)NC(=O)[C@H](Cc3ccc(-c4ccccc4)cc3)NC(=O)[C@H](Cc3ccc(OCC(=O)O)cc3)NC2=O)c1` [Compound 3527] ({CH2CO}-RY(Carboxymethyl)D[Phe(3-Me)]Y(Carboxymethyl)[Bip]Y(Carboxymethyl)[Orn][dL][Dab][Cha][Tle]SC[dN][Aun]-OH; thioether N-14), for which the pIC50 – broadly, the negative decadic logarithm of the IC50, by convention in mol/L – is 7.29. As to `Cc1cccc(C[C@@H]2NC(=O)[C@H](CC(=O)O)NC(=O)[C@H](Cc3ccc(OCC(=O)O)cc3)NC(=O)[C@H](CCCNC(=N)N)NC(=O)CSC[C@@H](C(=O)N[C@H](CC(N)=O)C(=O)NCCCCCCCCCCC(=O)O)NC(=O)[C@H](CCC(N)=O)NC(=O)[C@H](C(C)(C)C)NC(=O)[C@H](CC3CCCCC3)NC(=O)[C@H](CCN)NC(=O)[C@@H](CC(C)C)NC(=O)[C@H](CCCN)NC(=O)[C@H](Cc3ccc(OCC(=O)O)cc3)NC(=O)[C@H](Cc3ccc(-c4ccccc4)cc3)NC(=O)[C@H](Cc3ccc(OCC(=O)O)cc3)NC2=O)c1` [Compound 3528] ({CH2CO}-RY(Carboxymethyl)D[Phe(3-Me)]Y(Carboxymethyl)[Bip]Y(Carboxymethyl)[Orn][dL][Dab][Cha][Tle]QC[dN][Aun]-OH; thioether N-14), the pIC50 was 7.06. In the case of `Cc1cccc(C[C@@H]2NC(=O)[C@H](CC(=O)O)NC(=O)[C@H](Cc3ccc(OCC(=O)O)cc3)NC(=O)[C@H](CCCNC(=N)N)NC(=O)CSC[C@@H](C(=O)N[C@H](CC(N)=O)C(=O)NCCCCCCCCCCC(=O)O)NC(=O)[C@H](CCC(N)=O)NC(=O)[C@H](C(C)O)NC(=O)[C@H](CC3CCCCC3)NC(=O)[C@H](CCN)NC(=O)[C@@H](CC(C)C)NC(=O)[C@H](CCCN)NC(=O)[C@H](Cc3ccc(OCC(=O)O)cc3)NC(=O)[C@H](Cc3ccc(-c4ccccc4)cc3)NC(=O)[C@H](Cc3ccc(OCC(=O)O)cc3)NC2=O)c1` (stereo partly drawn) [Compound 3529] ({CH2CO}-RY(Carboxymethyl)D[Phe(3-Me)]Y(Carboxymethyl)[Bip]Y(Carboxymethyl)[Orn][dL][Dab][Cha][Thr(3ξ)]QC[dN][Aun]-OH; thioether N-14), the pIC50 was 7.11. `Cc1cccc(C[C@@H]2NC(=O)[C@H](CC(=O)O)NC(=O)[C@H](Cc3ccc(OCC(=O)O)cc3)NC(=O)[C@H](CCCNC(=N)N)NC(=O)CSC[C@@H](C(=O)N[C@@H](CCN)C(=O)NCCCCCCCCCCC(=O)O)NC(=O)[C@H](CO)NC(=O)[C@H](C(C)O)NC(=O)[C@H](CC3CCCCC3)NC(=O)[C@H](CCN)NC(=O)[C@@H](CC(C)C)NC(=O)[C@H](CCCN)NC(=O)[C@H](Cc3ccc(OCC(=O)O)cc3)NC(=O)[C@H](Cc3ccc(-c4ccccc4)cc3)NC(=O)[C@H](Cc3ccc(OCC(=O)O)cc3)NC2=O)c1` (stereo partly drawn) [Compound 3530] ({CH2CO}-RY(Carboxymethyl)D[Phe(3-Me)]Y(Carboxymethyl)[Bip]Y(Carboxymethyl)[Orn][dL][Dab][Cha][Thr(3ξ)]SC[Dab][Aun]-OH; thioether N-14): the pIC50 is 8.14. To `Cc1cccc(C[C@@H]2NC(=O)[C@H](CC(=O)O)NC(=O)[C@H](Cc3ccc(OCC(=O)O)cc3)NC(=O)[C@H](CCCNC(=N)N)NC(=O)CSC[C@@H](C(=O)N[C@@H](CCN)C(=O)NCCCCCCCCCCC(=O)O)NC(=O)[C@H](CO)NC(=O)[C@H](C(C)(C)C)NC(=O)[C@H](CC3CCCCC3)NC(=O)[C@H](CCN)NC(=O)[C@@H](CC(C)C)NC(=O)[C@H](CCCN)NC(=O)[C@H](Cc3ccc(OCC(=O)O)cc3)NC(=O)[C@H](Cc3ccc(-c4ccccc4)cc3)NC(=O)[C@H](Cc3c[nH]c4ccccc34)NC2=O)c1` [Compound 3531] ({CH2CO}-RY(Carboxymethyl)D[Phe(3-Me)]W[Bip]Y(Carboxymethyl)[Orn][dL][Dab][Cha][Tle]SC[Dab][Aun]-OH; thioether N-14) belongs 7.31. To `Cc1cccc(C[C@@H]2NC(=O)[C@H](CC(=O)O)NC(=O)[C@H](Cc3ccc(OCC(=O)O)cc3)NC(=O)[C@H](CCCNC(=N)N)NC(=O)CSC[C@@H](C(=O)N[C@@H](CCN)C(=O)NCCCCCCCCCCC(=O)O)NC(=O)[C@H](CCC(N)=O)NC(=O)[C@H](C(C)(C)C)NC(=O)[C@H](CC3CCCCC3)NC(=O)[C@H](CCN)NC(=O)[C@@H](CC(C)C)NC(=O)[C@H](CCCN)NC(=O)[C@H](Cc3ccc(OCC(=O)O)cc3)NC(=O)[C@H](Cc3ccc(-c4ccccc4)cc3)NC(=O)[C@H](Cc3ccc(OCC(=O)O)cc3)NC2=O)c1` [Compound 3532] ({CH2CO}-RY(Carboxymethyl)D[Phe(3-Me)]Y(Carboxymethyl)[Bip]Y(Carboxymethyl)[Orn][dL][Dab][Cha][Tle]QC[Dab][Aun]-OH; thioether N-14) belongs 8.12; to `Cc1cccc(C[C@@H]2NC(=O)[C@H](CC(=O)O)NC(=O)[C@H](Cc3ccc(OCC(=O)O)cc3)NC(=O)[C@H](CCCNC(=N)N)NC(=O)CSC[C@@H](C(=O)N[C@@H](CCN)C(=O)NCCCCCCCCCCC(=O)O)NC(=O)[C@H](CCC(N)=O)NC(=O)[C@H](C(C)(C)O)NC(=O)[C@H](CC3CCCCC3)NC(=O)[C@H](CCN)NC(=O)[C@@H](CC(C)C)NC(=O)[C@H](CCCN)NC(=O)[C@H](Cc3ccc(OCC(=O)O)cc3)NC(=O)[C@H](Cc3ccc(-c4ccccc4)cc3)NC(=O)[C@H](Cc3ccc(OCC(=O)O)cc3)NC2=O)c1` [Compound 3533] ({CH2CO}-RY(Carboxymethyl)D[Phe(3-Me)]Y(Carboxymethyl)[Bip]Y(Carboxymethyl)[Orn][dL][Dab][Cha][Val(3-OH)]QC[Dab][Aun]-OH; thioether N-14), 8.29; to `Cc1cccc(C[C@@H]2NC(=O)[C@H](CC(=O)O)NC(=O)[C@H](Cc3ccc(OCC(=O)O)cc3)NC(=O)[C@H](CCCNC(=N)N)NC(=O)CSC[C@@H](C(=O)N[C@@H](CCCCN)C(=O)N[C@@H](CO)C(=O)NCCCCCCCCCCCC(=O)O)NC(=O)[C@H](CN)NC(=O)[C@H](C(C)C)NC(=O)[C@H](CC3CCCCC3)NC(=O)[C@H](CCN)NC(=O)[C@@H](CC(C)C)NC(=O)[C@H](CCCN)NC(=O)[C@H](CCCNC(N)=O)NC(=O)[C@H](Cc3ccc(-c4ccccc4)cc3)NC(=O)[C@H](C(C)C)NC2=O)c1` [Compound 3534] ({CH2CO}-RY(Carboxymethyl)D[Phe(3-Me)]V[Bip][Cit][Orn][dL][Dab][Cha]V[Dap]CKS[12Ado]-OH; thioether N-14), 7.65. The figure for `Cc1cccc(C[C@@H]2NC(=O)[C@H](CC(=O)O)NC(=O)[C@H](Cc3ccc(OCC(=O)O)cc3)NC(=O)[C@H](CCCNC(=N)N)NC(=O)CSC[C@@H](C(=O)N[C@@H](CCCCN)C(=O)N[C@@H](CO)C(=O)NCCCCCCCCCCCC(=O)O)NC(=O)[C@H](CN)NC(=O)[C@H](C(C)C)NC(=O)[C@H](CC3CCCCC3)NC(=O)[C@H](CCN)NC(=O)[C@@H](CC(C)C)NC(=O)[C@H](CCCN)NC(=O)[C@H](C(C)C)NC(=O)[C@H](Cc3ccc(-c4ccccc4)cc3)NC(=O)[C@H](C(C)C)NC2=O)c1` [Compound 3535] ({CH2CO}-RY(Carboxymethyl)D[Phe(3-Me)]V[Bip]V[Orn][dL][Dab][Cha]V[Dap]CKS[12Ado]-OH; thioether N-14) is 7.87; for `Cc1cccc(C[C@@H]2NC(=O)[C@H](CC(=O)O)NC(=O)[C@H](Cc3ccc(OCC(=O)O)cc3)NC(=O)[C@H](CCCCNC(=N)N)NC(=O)CSC[C@@H](C(=O)N[C@@H](CCN)C(=O)N[C@@H](CO)C(=O)NCCCCCCCCCCCC(=O)O)NC(=O)[C@H](C(C)O)NC(=O)[C@H](C(C)O)NC(=O)[C@H](CC3CCCCC3)NC(=O)[C@H](CCN)NC(=O)[C@@H](CC(C)C)NC(=O)[C@H](CCCN)NC(=O)[C@H](CCCNC(=N)N)NC(=O)[C@H](Cc3ccc(-c4ccccc4)cc3)NC(=O)[C@H](C(C)C)NC2=O)c1` (stereo partly drawn) [Compound 3537] ({CH2CO}-[hArg]Y(Carboxymethyl)D[Phe(3-Me)]V[Bip]R[Orn][dL][Dab][Cha][Thr(3ξ)][Thr(3ξ)]C[Dab]S[12Ado]-OH; thioether N-14) it is 7.52; for `CC(=O)NCCCC[C@@H]1NC(=O)CSC[C@@H](C(=O)N[C@@H](CCN)C(=O)NCCCCCCCCCCC(=O)O)NC(=O)[C@H](C(C)O)NC(=O)[C@H](C(C)C)NC(=O)[C@H](CC2CCCCC2)NC(=O)[C@H](CCN)NC(=O)[C@@H](CC(C)C)NC(=O)[C@H](CCCN)NC(=O)[C@H](CCCNC(N)=O)NC(=O)[C@H](Cc2ccc(-c3ccccc3)cc2)NC(=O)[C@H](C(C)C)NC(=O)[C@H](Cc2cccc(C)c2)NC(=O)[C@H](CC(=O)O)NC(=O)[C@H](Cc2ccc(OCC(=O)O)cc2)NC1=O` (stereo partly drawn) [Compound 3538] ({CH2CO}-K(Ac)Y(Carboxymethyl)D[Phe(3-Me)]V[Bip][Cit][Orn][dL][Dab][Cha]V[Thr(3ξ)]C[Dab][Aun]-OH; thioether N-14) it is 7.58. On to `Cc1cccc(C[C@@H]2NC(=O)[C@H](CC(=O)O)NC(=O)[C@H](Cc3ccc(OCC(=O)O)cc3)NC(=O)[C@H](CCCCNC(=O)C(C)(C)C)NC(=O)CSC[C@@H](C(=O)N[C@@H](CCN)C(=O)NCCCCCCCCCCC(=O)O)NC(=O)[C@H](C(C)O)NC(=O)[C@H](C(C)C)NC(=O)[C@H](CC3CCCCC3)NC(=O)[C@H](CCN)NC(=O)[C@@H](CC(C)C)NC(=O)[C@H](CCCN)NC(=O)[C@H](CCCNC(N)=O)NC(=O)[C@H](Cc3ccc(-c4ccccc4)cc3)NC(=O)[C@H](C(C)C)NC2=O)c1` (stereo partly drawn) [Compound 3539] ({CH2CO}-K(Piv)Y(Carboxymethyl)D[Phe(3-Me)]V[Bip][Cit][Orn][dL][Dab][Cha]V[Thr(3ξ)]C[Dab][Aun]-OH; thioether N-14), for which the pIC50 is 7.40.
